Reference: US20220241260A9, “Pharmaceutical Compositions Of Metabotropic Glutamate 5 Receptor (MGLU5) Antagonists” (F. HOFFMANN-LA ROCHE AG, priority 2010, published 2022)

Assay: BCS classification
Format: physicochemical
Details: because of pH dependent solubility in physiological range

BCS class: BCS class 2
SMILES: Cc1nc(C#Cc2ccnc(Cl)c2)c(C)n1-c1ccc(F)cc1 [2-Chloro-4-[1-(4-fluoro-phenyl)-2,5-dimethyl-1H-imidazol-4-ylethynyl]-pyridine]
